Assay results published in patent US20030032003A1, “IN VIVO SELECTION” (priority 2000, published 2003).
Where two headings read alike, the source gives them in different places. Marks after values point to notes of the source that are not given here.

Key:
[1] = tested on: Hprt +/+ bone marrow of recipient mice; assay: Bone marrow replacement, Southern blot analysis of Y (donor) DNA; assay type: in vivo, mouse
Text: The replacement of Hprt positive bone marrow with Hprt deficient bone marrow was examined by Southern blot analysis. Since recipients animals were females and donor bone marrow was of male origin, we have determined the fraction of cells containing chromosome (Y) in hematopoetic organs (bone marrow, spleen, thymus) and peripheral tissue (tail) in recipient animals. The Y chromosome was detected in 6TG treated and control animals.
Next Applicants tested whether “in vivo selection” without whole body irradiation can lead to complete bone marrow replacement. The wild type recipient mice were pretreated with 6TG (10 mg/kg twice in 48 hrs interval) or with sterile PBS and the Hprt deficient bone marrow was transplanted. The animals in the experimental group were 6TG pretreated followed with the 6TG in vivo selection protocol (described herein above). The control animals (6TG or PBS pretreated) were treated with sterile PBS buffer instead of 6TG. The degree of bone marrow replacement was evaluated by Southern blot analysis in hematopoetic tissues (bone marrow, spleen, thymus) and blood at the end of the 7th week post transplantation.

[2] = tested on: embryos of C57BL6/J Hprt −/− females mated with wildtype Hprt +/o males; assay type: in vivo; settings: for Offspring ♀ (Hprt +/−, sensitive) / Offspring ♂ (Hprt −/o, resistant): three i.p. injections of 20 mg/kg in 24 hrs intervals during gestation
Method: The animals were housed in standard plastic microisolator cages with wood-chip bedding. The room was maintained at 22° C. and 70% humidity and the light cycle was 12 hours. Water and mouse diet No:5015 (PMI Feeds, Inc., St. Louis, Mo.) was supplied ad libitum. All housing and treatment protocols were reviewed and approved by an institutional Animal Care Committee.
Hprt −/− females (5-8 weeks old) were mated with wildtype males and the presence of vaginal plugs was examined daily. The day when a plug appeared was considered to be day 1 of pregnancy and the male was separated. The pregnant dams were treated with three i.p. injections of 6-thioguanine (20 mg/kg) or in control matings with saline starting […] in 24 hrs intervals. Pregnant mice were examined daily until term. The gender of offsprings was first determined 24 days after delivery and confirmed at the time of weaning (4 weeks of age).
An experiment was designed to investigate whether one could select against Hprt wildtype embryos with 6-thioguanine. Female mice C57BL6/J Hprt −/− were mated with wildtype Hprt +/o males. Since the Hprt gene is located on the X chromosome the resulting male offspring will be Hprt −/o and therefore resistant to 6-thioguanine (6TG). On the other hand, female offspring will be Hprt +/− and thus sensitive to 6TG. 6TG (Sigma) was injected i.p. in three subsequential doses (20 mg/kg each) in 24 hrs intervals starting on the third day of gestation. Mice were screened two times daily for possible toxic effects.

[3] = tested on: Hprt+/+ mice, recipients of Hprt−/− bone marrow and non-recipient controls
Method: Recipient Hprt+/+ female mice were irradiated with 950 cGy of X-rays 24 hours before transplantation.
Briefly, bone marrow was flushed from femora and tibiae with 2 ml of Dulbecco's modified Eagle medium (D-MEM) supplemented with 10% of FBS and 100 units/ml penicillin, 100 mg/ml streptomycin. The isolated cells from the donor mouse were washed with PBS and injected into the tail vein of female Hprt +/+ recipients.
6TG (2-amino-6-mercaptopurine Sigma) was suspended in sterile PBS with a final concentration of 0.5 mg/ml prior to each i.p. application. All mice, recipients of bone marrow transplant and non-recipient controls, were treated with the same 6TG dose regimen. All mice were treated one hour after transplantation of recipients with an initial dose of 6TG at 10 mg/kg body weight. After 7 days the animals were treated with 4 doses of 5 mg/kg b.w. in 48 hrs intervals and followed with 5 days of recovery period.
This regimen was repeated 2 times with doses 5 mg/kg and 3 times with doses of 10 mg/kg with 5 days recovery periods in between treatments. Another control group of transplanted animals was treated with the same amount of sterile PBS.

Hprt −/− mice = assay: Histopathological analysis of mouse tissues after 6TG
[4] = Hprt −/−, 6TG lethal 1148-2561 mg/kg, 3 mice
[5] = Hprt −/−, 6TG sublethal 25-720 mg/kg, 11 mice

SMILES: Nc1nc(S)c2[nH]cnc2n1 [6TG, 2-amino-6-merkaptopurine]
- bone marrow replacement ([1]; 6TG in vivo selection protocol, whether or not irradiation was used, end of 7th week post transplantation): 100%
- engraftment of Hprt deficient bone marrow cells (containing Y chomosome) ([1]; irradiated recipients, 6TG selection in comparison to control animals): significantly increased engraftment
- Offspring ♀ (Hprt +/−, sensitive) ([2]; Dam 1T): 0
- Offspring ♂ (Hprt −/o, resistant) ([2]; Dam 1T): 4
- Offspring ♀ (Hprt +/−, sensitive) ([2]; Dam 2T): 0
- Offspring ♂ (Hprt −/o, resistant) ([2]; Dam 2T): 2
- toxicity to the dams ([2]; Hprt −/− dams, three doses 20 mg/kg i.p.): did not cause any apparent toxic symptoms or discomfort to the dams
- male offspring delivered ([2]; two 6TG treated dams together): 6
- toxic effect of 6TG ([3]; 6TG treated bone marrow (BM) recipients): did not show any apparent toxic effect
- body weight decrease ([3]; 6TG treated bone marrow recipients, first week after transplantation): about 10%
- Body weight ([3]; Bone marrow recipients +6TG, week 1): 91
- Body weight ([3]; Bone marrow recipients +6TG, week 2): 89
- Body weight ([3]; Bone marrow recipients +6TG, week 3): 90
- Body weight ([3]; Bone marrow recipients +6TG, week 4): 90
- Body weight ([3]; Bone marrow recipients +6TG, week 5): 88
- Body weight ([3]; Bone marrow recipients +6TG, week 6): 93
- Body weight ([3]; Controls (non-recipients) +6TG, week 1): 99
- Body weight ([3]; Controls (non-recipients) +6TG, week 2): 100
- Body weight ([3]; Controls (non-recipients) +6TG, week 3, these mice died): 86*
- Body weight ([3]; Controls (non-recipients) +6TG, week 4, these mice died): 79*
- loss of body weight ([3]; non-recipient controls, during 3 weeks of 6TG treatment): 25%
- hyperplasia dose below doses causing toxicity (Hprt −/− mice; Hprt deficient animals): 40 fold
- dose at which liver necrosis appears (Hprt −/− mice; Hprt deficient mice): ≥ 507 mg/kg
- Kidneys Glomerulopathy, severity grade (Hprt −/− mice; Hprt −/−, 25 mg/kg i.p.): 1
- Kidneys Intersticial inflamation, severity grade (Hprt −/− mice; Hprt −/−, 25 mg/kg i.p.): 2
- Liver Centrilobular hypertrophy, severity grade (Hprt −/− mice; Hprt −/−, 25 mg/kg i.p.): 3
- Bone marrow Hypercellular, severity grade (Hprt −/− mice; Hprt −/−, 50 mg/kg i.p.): 1.0 ± 1.0
- Liver Centrilobular hypertrophy, severity grade (Hprt −/− mice; Hprt −/−, 50 mg/kg i.p.): 1.5 ± 0.5
- Liver Fatty change, severity grade (Hprt −/− mice; Hprt −/−, 50 mg/kg i.p.): 1.0 ± 1.0
- Bone marrow Hypercellular, severity grade (Hprt −/− mice; Hprt −/−, 100 mg/kg i.p.): 1
- Liver Centrilobular hypertrophy, severity grade (Hprt −/− mice; Hprt −/−, 100 mg/kg i.p.): 2
- Liver Extramedullary hematopoesis, severity grade (Hprt −/− mice; Hprt −/−, 100 mg/kg i.p.): 1
- Liver Fatty change, severity grade (Hprt −/− mice; Hprt −/−, 100 mg/kg i.p.): 1
- Bone marrow Hypercellular, severity grade (Hprt −/− mice; Hprt −/−, 150 mg/kg i.p.): 2
- Kidneys Glomerulopathy, severity grade (Hprt −/− mice; Hprt −/−, 150 mg/kg i.p.): 3
- Kidneys Intersticial inflamation, severity grade (Hprt −/− mice; Hprt −/−, 150 mg/kg i.p.): 2
- Kidneys Tubule basophilia, severity grade (Hprt −/− mice; Hprt −/−, 150 mg/kg i.p.): 1
- Kidneys Tubule dilatation, severity grade (Hprt −/− mice; Hprt −/−, 150 mg/kg i.p.): 2
- Liver Centrilobular hypertrophy, severity grade (Hprt −/− mice; Hprt −/−, 150 mg/kg i.p.): 2
- Liver Extramedullary hematopoesis, severity grade (Hprt −/− mice; Hprt −/−, 150 mg/kg i.p.): 1
- Liver Fatty change, severity grade (Hprt −/− mice; Hprt −/−, 150 mg/kg i.p.): 3
- Bone marrow Hypercellular, severity grade (Hprt −/− mice; Hprt −/−, 225 mg/kg i.p.): 2
- Kidneys Glomerulopathy, severity grade (Hprt −/− mice; Hprt −/−, 225 mg/kg i.p.): 2
- Kidneys Intersticial inflamation, severity grade (Hprt −/− mice; Hprt −/−, 225 mg/kg i.p.): 2
- Kidneys Tubule basophilia, severity grade (Hprt −/− mice; Hprt −/−, 225 mg/kg i.p.): 2
- Kidneys Tubule dilatation, severity grade (Hprt −/− mice; Hprt −/−, 225 mg/kg i.p.): 2
- Liver Extramedullary hematopoesis, severity grade (Hprt −/− mice; Hprt −/−, 225 mg/kg i.p.): 1
- Liver Fatty change, severity grade (Hprt −/− mice; Hprt −/−, 225 mg/kg i.p.): 2
- Bone marrow Hypercellular, severity grade (Hprt −/− mice; Hprt −/−, 338 mg/kg i.p.): 1
- Kidneys Glomerulopathy, severity grade (Hprt −/− mice; Hprt −/−, 338 mg/kg i.p.): 1
- Kidneys Intersticial inflamation, severity grade (Hprt −/− mice; Hprt −/−, 338 mg/kg i.p.): 2
- Kidneys Tubule basophilia, severity grade (Hprt −/− mice; Hprt −/−, 338 mg/kg i.p.): 1
- Kidneys Tubule dilatation, severity grade (Hprt −/− mice; Hprt −/−, 338 mg/kg i.p.): 1
- Liver Centrilobular hypertrophy, severity grade (Hprt −/− mice; Hprt −/−, 338 mg/kg i.p.): 1
- Liver Extramedullary hematopoesis, severity grade (Hprt −/− mice; Hprt −/−, 338 mg/kg i.p.): 1
- Liver Fatty change, severity grade (Hprt −/− mice; Hprt −/−, 338 mg/kg i.p.): 2
- Spleen Lymphoid depletion, severity grade (Hprt −/− mice; Hprt −/−, 338 mg/kg i.p.): 1
- Bone marrow Hypercellular, severity grade (Hprt −/− mice; Hprt −/−, 507 mg/kg i.p.): 1.5 ± 0.5
- Kidneys Tubule basophilia, severity grade (Hprt −/− mice; Hprt −/−, 507 mg/kg i.p.): 1.5 ± 0.5
- Kidneys Tubule dilatation, severity grade (Hprt −/− mice; Hprt −/−, 507 mg/kg i.p.): 0.5 ± 0.5
- Liver Atrophy necrosis, severity grade (Hprt −/− mice; Hprt −/−, 507 mg/kg i.p.): 1.0 ± 0.0
- Liver Centrilobular hypertrophy, severity grade (Hprt −/− mice; Hprt −/−, 507 mg/kg i.p.): 2.0 ± 0.0
- Liver Extramedullary hematopoesis, severity grade (Hprt −/− mice; Hprt −/−, 507 mg/kg i.p.): 1.5 ± 0.5
- Liver Fatty change, severity grade (Hprt −/− mice; Hprt −/−, 507 mg/kg i.p.): 2.5 ± 0.5
- Bone marrow Hypercellular, severity grade (Hprt −/− mice; Hprt −/−, 720 mg/kg i.p.): 1.5 ± 0.5
- Kidneys Glomerulopathy, severity grade (Hprt −/− mice; Hprt −/−, 720 mg/kg i.p.): 0.5 ± 0.5
- Kidneys Intersticial inflamation, severity grade (Hprt −/− mice; Hprt −/−, 720 mg/kg i.p.): 1.5 ± 0.5
- Kidneys Tubule basophilia, severity grade (Hprt −/− mice; Hprt −/−, 720 mg/kg i.p.): 1.5 ± 0.5
- Kidneys Tubule dilatation, severity grade (Hprt −/− mice; Hprt −/−, 720 mg/kg i.p.): 1.5 ± 0.5
- Liver Atrophy necrosis, severity grade (Hprt −/− mice; Hprt −/−, 720 mg/kg i.p.): 0.5 ± 0.5
- Liver Centrilobular hypertrophy, severity grade (Hprt −/− mice; Hprt −/−, 720 mg/kg i.p.): 1.0 ± 0.0
- Liver Extramedullary hematopoesis, severity grade (Hprt −/− mice; Hprt −/−, 720 mg/kg i.p.): 1.0 ± 0.0
- Liver Fatty change, severity grade (Hprt −/− mice; Hprt −/−, 720 mg/kg i.p.): 1.5 ± 0.5
- Spleen Lymphoid depletion, severity grade (Hprt −/− mice; Hprt −/−, 720 mg/kg i.p.): 0.5 ± 0.5
- Bone marrow Depletion, average of lesion severity grade (Hprt −/− mice; [4]): 2.3 ± 0.6
- Bone marrow Necrosis, average of lesion severity grade (Hprt −/− mice; [4]): 3.0 ± 0.0
- Gastric epithelium Atrophy, average of lesion severity grade (Hprt −/− mice; [4]): 0.6 ± 0.6
- Intestinal epithelium Atrophy, average of lesion severity grade (Hprt −/− mice; [4]): 0.6 ± 0.6
- Kidneys Tubule dilatation, average of lesion severity grade (Hprt −/− mice; [4]): 0.3 ± 0.6
- Liver Atrophy necrosis, average of lesion severity grade (Hprt −/− mice; [4]): 1.3 ± 0.6
- Liver Centrilobular hypertrophy, average of lesion severity grade (Hprt −/− mice; [4]): 1.0 ± 1.7
- Liver Extramedullary hematopoesis, average of lesion severity grade (Hprt −/− mice; [4]): 0.3 ± 0.6
- Liver Fatty change, average of lesion severity grade (Hprt −/− mice; [4]): 3.3 ± 0.6
- Spleen Lymphoid depletion, average of lesion severity grade (Hprt −/− mice; [4]): 3.7 ± 0.6
- Spleen Necrosis, average of lesion severity grade (Hprt −/− mice; [4]): 2.0 ± 1.7
- Bone marrow Hypercellular, average of lesion severity grade (Hprt −/− mice; [5]): 1.2 ± 0.6
- Kidneys Glomerulopathy, average of lesion severity grade (Hprt −/− mice; [5]): 1.0 ± 1.0
- Kidneys Intersticial inflamation, average of lesion severity grade (Hprt −/− mice; [5]): 1.5 ± 1.0
- Kidneys Tubule basophilia, average of lesion severity grade (Hprt −/− mice; [5]): 0.9 ± 0.8
- Kidneys Tubule dilatation, average of lesion severity grade (Hprt −/− mice; [5]): 0.9 ± 0.9
- Liver Atrophy necrosis, average of lesion severity grade (Hprt −/− mice; [5]): 0.2 ± 0.4
- Liver Centrilobular hypertrophy, average of lesion severity grade (Hprt −/− mice; [5]): 1.2 ± 0.8
- Liver Extramedullary hematopoesis, average of lesion severity grade (Hprt −/− mice; [5]): 0.8 ± 0.5
- Liver Fatty change, average of lesion severity grade (Hprt −/− mice; [5]): 1.6 ± 0.9
- Spleen Lymphoid depletion, average of lesion severity grade (Hprt −/− mice; [5]): 02 ± 0.4
